Assays:
[1] = Measurement of acetal hydrolysis kinetics (absorbance vs time in buffered solutions); format: physicochemical; conditions: formaldehyde-derived vs acetaldehyde-derived acetal
Excerpt: To illustrate the rate of cleavage of several example ortho carboxy phenol derived acetals, we synthesized the molecules 1-3 (shown in FIG. 2) and measured the rates of acetal hydrolysis for each at pH 5.2-7.3. • Acetal 1. R′, R=alkyl; and R1, R2, R3, R4=hydrogen • Acetal 2. R′, R=alkyl; R1, R4=hydrogen; R2=carboxyl (carbon-containing group); R3=hydroxyl (heteroatom) • Acetal 3. R′=alkyl; R, R2, R3, R4=hydrogen; and R1=carboxyl (carbon-containing group)
To determine the rate of acetal hydrolysis, compounds 1-3 were added to buffered solutions (pH 7-8 with 5 mM HEPES, or pH 5-7 with 5 mM acetate) at various pH values and the absorbance of the solution was measured as a function of time (λ=302 nm for 1 and 2 and 310 nm for 3). The rate constant was determined by determining the slope of the line derived from plotting ln[1−((A∞−At)/(A28−Ao))] as a function of time t, where A28 is absorbance after >3 hours of hydrolysis, At is the absorbance at time t, and Ao is the initial absorbance. The half-life of the hydrolysis equals ln[2] divided by the rate constant.

[2] = tested on: Hepa mouse hepatoma cells; assay: DNA transfection, luciferase expression (pCIluc/DW921 complexes with crosslinker); format: cell-based; conditions: pCIluc 10 μg/mL, DW921 100 μg/mL, 48 h, average of two wells
Method: To a solution of plasmid DNA pCIluc (10 μg/mL, 0.075 mM in phosphate, 2.6 μg/μL pCIluc; prepared according to Danko et al. 1997) in 0.5 mL of 150 mM NaCl and 5 mM TAPS pH 9 was added 100 μg/mL DW921. The complexes were then reacted with glutaraldehyde, periodate oxidized phenyl glucoside (another crosslinker containing a labile bond), or periodate oxidized salicylic galactoside at 1, 2, 4, 8, or 16 μg/mL. The complexes were then added (200 μL) to wells containing Hepa mouse hepatoma cells in Dulbecco's modified Eagle's Media containing 10% fetal bovine serum. The cells were allowed to incubate for 48 h. The cells were then harvested and assayed for luciferase expression as previously reported. The amount of transfection was reported in relative light units and is the average transfection for two separate wells of cells.

| SMILES | rate of acetal hydrolysis relative to acetals derived from alkyl-substituted aldehydes (acetals 1 and 2) [1] | Relative Light Units (luciferase expression) ([2]; 2 μg/mL dialdehyde crosslinker) [Relative Light Units] | Relative Light Units (luciferase expression) ([2]; 4 μg/mL dialdehyde crosslinker) | Relative Light Units (luciferase expression) ([2]; 8 μg/mL dialdehyde crosslinker) [Relative Light Units] |
| --- | --- | --- | --- | --- |
| CC(C)[C@@H]1CC[C@@H](C)C[C@H]1OCOc1c(C(=O)O)cccc1C(=O)O [Acetal 3] | hydrolyze more slowly | – | – | – |
| O=CCCCC=O [glutaraldehyde] | – | 620 | 1,400 Relative Light Units | 590 |

From patent US7348453B2, “Labile linkage for compound delivery to a cell” (Mirus Bio Corporation, priority 2003, dated 2008)
